Assay type in all cases: cell-based
In assay [1] the target is histamine H1 (Homo sapiens, UniProt P35367). As to the kind of experiment: Test against other receptors: histamine H1.
The target in assay [2] is T1, m2 receptor (Homo sapiens, UniProt P08172).
T1 construct: expressed in transfected cells; host or cells: NIH 3T3 (ATCC CRL 1658)
T1 sequence (P08172 1-466): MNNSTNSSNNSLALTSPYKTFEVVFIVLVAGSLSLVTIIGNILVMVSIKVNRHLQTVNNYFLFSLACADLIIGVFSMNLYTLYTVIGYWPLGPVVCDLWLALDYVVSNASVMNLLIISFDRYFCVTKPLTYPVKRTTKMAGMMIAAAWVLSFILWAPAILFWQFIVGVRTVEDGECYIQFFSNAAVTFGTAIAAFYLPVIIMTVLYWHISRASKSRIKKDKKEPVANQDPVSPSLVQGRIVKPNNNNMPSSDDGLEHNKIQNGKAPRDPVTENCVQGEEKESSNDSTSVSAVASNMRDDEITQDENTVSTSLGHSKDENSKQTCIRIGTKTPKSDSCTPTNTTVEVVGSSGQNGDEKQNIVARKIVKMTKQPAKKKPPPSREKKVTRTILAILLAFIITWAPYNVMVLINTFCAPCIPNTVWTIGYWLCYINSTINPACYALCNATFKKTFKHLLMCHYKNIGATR
As to the kind of experiment: NIH 3T3 cells transfected with m2 muscarinic receptor and Gq-i5. How it is done: Transfection of cells with muscarinic receptor DNAs (general procedure) NIH 3T3 cells (available from the American Type Culture Collection as ATCC CRL 1658) were grown at 37° C. in a humidified atmosphere (5% CO2) incubator in Dulbecco's modified Eagle's medium (DMEM) supplemented with 4.5 g/l glucose, 4 mM glutamine, 50 units/m1 penicillin, 50 units/m1 streptomycin (available from Advanced Biotechnologies, Inc., Gaithersburg, Md.) and 10% calf serum (available from Sigma, St. Louis, […].). The cells were treated with trypsin-EDTA, spun down and plated at 2×10^6 per 15 cm dish in 20 m1 of DMEM containing 10% calf serum.
The m1-m5 muscarinic receptor subtypes were cloned substantially as described by Bonner et al., Science 237, 1987, p. 527, and Bonner et al., Neuron 1, 1988, p. 403. For the m2 and m4 receptors, the cells were co-transfected with DNA encoding a chimera between the Gq protein and the five carboxy-terminal amino acids of the Gi protein (the Gq-i5 construct is described by Conklin et al., Nature 363, 1993, p.274).
On day one, the cells were transfected using the Superfect transfection reagent (available from Qiagen, Valencia, Calif.) in accordance with the manufacturer's instructions. […]

Assay [3] addresses T2, α-adrenergic receptor subtype 1D (Homo sapiens, UniProt P25100).
T2 sequence (P25100 1-572): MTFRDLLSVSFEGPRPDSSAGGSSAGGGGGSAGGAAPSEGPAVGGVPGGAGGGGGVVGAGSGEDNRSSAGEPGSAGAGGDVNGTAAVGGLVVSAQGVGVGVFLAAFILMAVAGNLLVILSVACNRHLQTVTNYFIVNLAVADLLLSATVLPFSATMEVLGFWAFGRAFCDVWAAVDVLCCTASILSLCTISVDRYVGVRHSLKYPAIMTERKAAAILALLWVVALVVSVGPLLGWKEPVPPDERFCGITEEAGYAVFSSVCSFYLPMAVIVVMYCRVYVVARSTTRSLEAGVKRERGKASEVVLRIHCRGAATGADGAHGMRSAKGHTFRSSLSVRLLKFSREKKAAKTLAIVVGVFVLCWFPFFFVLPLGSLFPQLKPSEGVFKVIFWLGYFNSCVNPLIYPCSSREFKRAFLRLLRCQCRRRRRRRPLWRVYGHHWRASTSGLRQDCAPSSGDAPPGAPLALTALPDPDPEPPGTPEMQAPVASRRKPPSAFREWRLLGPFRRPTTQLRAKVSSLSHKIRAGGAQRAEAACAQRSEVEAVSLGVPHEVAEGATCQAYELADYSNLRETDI
The assay is described as follows: Test against other receptors: α-adrenergic 1D.

Here are results for one compound from patent US7485651B2, “Compounds with activity on muscarinic receptors” (Acadia Pharmaceuticals, Inc., priority 1998, dated 2009).

SMILES strings stand for the structures.

histamine H1, sequence (P35367 whole entry): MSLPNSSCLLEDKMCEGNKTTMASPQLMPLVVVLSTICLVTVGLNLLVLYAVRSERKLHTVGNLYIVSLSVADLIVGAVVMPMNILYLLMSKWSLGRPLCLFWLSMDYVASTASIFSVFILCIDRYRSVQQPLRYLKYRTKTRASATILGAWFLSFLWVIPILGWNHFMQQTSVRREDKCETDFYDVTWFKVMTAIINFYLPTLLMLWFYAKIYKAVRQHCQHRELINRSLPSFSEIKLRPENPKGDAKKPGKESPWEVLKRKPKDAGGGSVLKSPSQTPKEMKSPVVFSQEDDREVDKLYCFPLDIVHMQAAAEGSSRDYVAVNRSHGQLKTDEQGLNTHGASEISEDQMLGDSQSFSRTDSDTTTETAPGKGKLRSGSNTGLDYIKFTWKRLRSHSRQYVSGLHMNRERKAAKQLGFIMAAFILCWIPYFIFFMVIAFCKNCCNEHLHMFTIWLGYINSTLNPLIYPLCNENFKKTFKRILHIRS

For `CCCCC1CCN(CCCC(=O)c2ccccc2C)CC1` [Compound A, 4-n-Butyl-1-[4-(2-methylphenyl)-4-oxo-1-butyl]piperidine], the agonist activity entry in assay [1] and in assay [3] was “no significant activity” throughout. Moreover, in assay [2], the “antagonism of carbachol-induced responses” value is recorded as “not an antagonist”.
